One experiment deals with T1, hCA IV (Homo sapiens, UniProt P22748).
T1 construct: made in house
The experiment can be described thus: stopped flow CO2 hydrase assay, hCA IV. It is filed as biochemical. The following applies: mean from three different assays. How it is done:
(§1) An Applied Photophysics stopped-flow instrument was used to assay the CA catalysed CO2 hydration activity. […] The CO2 concentrations ranged from 1.7 to 17 mM for the determination of the kinetic parameters and inhibition constants. […] For each inhibitor, at least six traces of the initial 5–10% of the reaction were used to determine the initial velocity. The uncatalyzed rates were determined in the same manner and subtracted from the total observed rates. Stock solutions of the inhibitor (0.1 mM) were prepared in distilled–deionized water and dilutions up to 0.01 nM were done thereafter with the assay buffer. Inhibitor and enzyme solutions were preincubated together for 15 min at room temperature prior to the assay, to allow for the formation of the E–I complex. The inhibition constants were obtained by non-linear least-squares methods using PRISM 3 and the Cheng-Prusoff equation as reported earlier and represent the mean from at least three different determinations. All CA isoforms were recombinant proteins obtained in house, as reported earlier[14]^,[26–29].

A further experiment deals with SmCA (Schistosoma mansoni, UniProt A0A3Q0KSG2). In words: biochemical. The following applies: stopped flow CO2 hydrase assay; mean from three different assays; read-out: Ki SmCA. How it is done:
(§2) An Applied Photophysics stopped-flow instrument was used to assay the CA catalysed CO2 hydration activity. […] The uncatalyzed rates were determined in the same manner and subtracted from the total observed rates. Stock solutions of the inhibitor (0.1 mM) were prepared in distilled–deionized water and dilutions up to 0.01 nM were done thereafter with the assay buffer. Inhibitor and enzyme solutions were preincubated together for 15 min at room temperature prior to the assay, to allow for the formation of the E–I complex. The inhibition constants were obtained by non-linear least-squares methods using PRISM 3 and the Cheng-Prusoff equation as reported earlier and represent the mean from at least three different determinations. All CA isoforms were recombinant proteins obtained in house, as reported earlier[14]^,[26–29].

A further experiment addresses LdCA (Leishmania donovani, UniProt A0A3S5H5R2). The experiment can be described thus: biochemical. Particulars: stopped flow CO2 hydrase assay; mean from three different assays; read-out: Ki LdCA. How it is done: as §2
Another experiment has as its target T2, hCA II (Homo sapiens, UniProt P00918).
T2 construct: made in house
The experiment can be described thus: stopped flow CO2 hydrase assay, hCA II. It is filed as biochemical. Particulars: mean from three different assays, read-out: Ki hCAII. How it is done:
as §1

Another experiment concerns the target T3, hCA I (Homo sapiens, UniProt P00915).
T3 construct: made in house
In words: stopped flow CO2 hydrase assay, hCA I. Particulars: mean from three different assays. It is filed as biochemical. How it is done:
as §1

Experiment [1] deals with newly transformed schistosomula (NTS). The experiment can be described thus: In vitro antischistosomal activity against newly transformed schistosomula (NTS). It is filed as cell-based, Schistosoma mansoni. The following applies: 10 μM, after 72 h of exposure, viability via microscopy. How it is done: (§3) In vitro studies were carried out in accordance with Swiss national and cantonal regulations on animal welfare under the permission number 2070. The drug sensitivity assays with S. mansoni (adult and newly transformed schistosomules (NTS)) were carried out as described recently. Briefly, to obtain NTS, cercariae were collected from infected Biomphalaria glabrata snails and were mechanically transformed. Adult S. mansoni worms were collected by dissecting the mesenteric veins of infected mice at day 49 postinfection. Approximately 30–40 NTS were incubated with the respective test drug in 250 µL of M199 medium (Gibco, Waltham, MA) supplemented with 5% (v/v) foetal calf serum (FCS) (Bioconcept AG, Switzerland), 1% (v/v) penicillin/streptomycin solution (Sigma–Aldrich, Switzerland) and 1% (v/v) antibacterial/antifungal solution for up to 72 h at 37 °C and 5% CO2. The drug was tested at 10 µM in triplicate and repeated once. Three adult S. mansoni were incubated in a final volume of 2 mL rpmI 1640 supplemented with 5% (v/v) FCS and 1% (v/v) penicillin/streptomycin at 37 °C and 5% CO2 for 72 h at 10 µM. The experiment was conducted in duplicate. Worms were judged via microscopic readout 72 h after incubation; they were scored according to phenotypic reference points such as motility, morphology and granularity (scores from 0 to 3).

The next experiment deals with T4, hCA IX (Homo sapiens, UniProt Q16790).
T4 construct: made in house
In words: stopped flow CO2 hydrase assay, hCA IX. Format: biochemical. Particulars: mean from three different assays. How it is done:
as §1

For a further experiment, the system named is S. mansoni adult worms. In words: In vitro antischistosomal activity against adult S. mansoni worms. Format: cell-based, Schistosoma mansoni. The following applies: 10 μM, 72 h, viability via microscopy. How it is done: as §3
The target in a further experiment is TcCA (Trypanosoma cruzi, UniProt Q4DKE0). Format: biochemical. The following applies: stopped flow CO2 hydrase assay; mean from three different assays. How it is done:
as §2

Results on six compounds are retold here after paper PMC9154761, “Development of Praziquantel sulphonamide derivatives as antischistosomal drugs” (Journal of Enzyme Inhibition and Medicinal Chemistry, 2022).

T1 sequence (P22748 19-312): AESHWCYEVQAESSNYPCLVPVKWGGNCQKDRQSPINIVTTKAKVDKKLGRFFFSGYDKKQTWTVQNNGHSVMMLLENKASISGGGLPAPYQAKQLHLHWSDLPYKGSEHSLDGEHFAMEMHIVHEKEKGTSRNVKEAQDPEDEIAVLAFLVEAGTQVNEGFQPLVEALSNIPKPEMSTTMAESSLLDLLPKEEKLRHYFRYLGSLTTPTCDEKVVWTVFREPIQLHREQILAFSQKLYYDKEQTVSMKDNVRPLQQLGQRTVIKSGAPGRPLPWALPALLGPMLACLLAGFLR
Chain of SmCA (A0A3Q0KSG2 entry or part of it): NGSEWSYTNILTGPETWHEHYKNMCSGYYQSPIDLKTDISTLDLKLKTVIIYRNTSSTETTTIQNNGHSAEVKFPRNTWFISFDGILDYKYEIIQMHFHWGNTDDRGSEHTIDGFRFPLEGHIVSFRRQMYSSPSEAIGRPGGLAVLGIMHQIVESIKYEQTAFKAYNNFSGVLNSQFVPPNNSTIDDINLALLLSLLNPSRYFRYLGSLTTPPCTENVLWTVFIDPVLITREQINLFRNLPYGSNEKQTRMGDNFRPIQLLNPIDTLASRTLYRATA
Chain of LdCA (A0A3S5H5R2 entry or part of it): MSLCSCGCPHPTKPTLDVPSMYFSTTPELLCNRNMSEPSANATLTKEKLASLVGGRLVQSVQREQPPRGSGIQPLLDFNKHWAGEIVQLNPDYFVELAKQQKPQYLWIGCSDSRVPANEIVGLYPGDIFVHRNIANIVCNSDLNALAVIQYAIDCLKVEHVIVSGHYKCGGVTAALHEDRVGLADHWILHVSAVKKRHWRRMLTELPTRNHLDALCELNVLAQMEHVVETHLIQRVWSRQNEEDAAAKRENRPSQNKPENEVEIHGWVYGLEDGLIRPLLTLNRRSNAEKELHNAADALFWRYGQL
T3 sequence (P00915 whole entry): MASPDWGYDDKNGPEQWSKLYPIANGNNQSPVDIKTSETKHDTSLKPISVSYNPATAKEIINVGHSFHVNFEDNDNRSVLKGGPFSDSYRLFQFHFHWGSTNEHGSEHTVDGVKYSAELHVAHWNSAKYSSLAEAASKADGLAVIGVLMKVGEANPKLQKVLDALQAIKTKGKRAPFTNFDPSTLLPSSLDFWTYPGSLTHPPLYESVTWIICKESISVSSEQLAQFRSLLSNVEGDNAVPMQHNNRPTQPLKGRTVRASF
Chain of TcCA (Q4DKE0 entry or part of it): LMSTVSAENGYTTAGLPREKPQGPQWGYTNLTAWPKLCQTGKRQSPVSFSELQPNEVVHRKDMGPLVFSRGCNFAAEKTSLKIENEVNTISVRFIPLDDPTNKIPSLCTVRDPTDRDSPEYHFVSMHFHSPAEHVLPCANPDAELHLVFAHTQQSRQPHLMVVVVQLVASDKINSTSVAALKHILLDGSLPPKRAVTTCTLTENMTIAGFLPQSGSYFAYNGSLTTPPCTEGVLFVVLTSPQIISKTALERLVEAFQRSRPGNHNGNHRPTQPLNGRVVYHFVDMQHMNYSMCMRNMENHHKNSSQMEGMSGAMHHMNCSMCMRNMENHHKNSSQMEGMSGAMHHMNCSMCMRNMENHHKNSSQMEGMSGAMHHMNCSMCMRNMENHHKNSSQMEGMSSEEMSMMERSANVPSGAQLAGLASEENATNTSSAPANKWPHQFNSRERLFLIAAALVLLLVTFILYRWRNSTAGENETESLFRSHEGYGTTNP

Regarding `NS(=O)(=O)c1ccc(CCNC(=O)N2CC(=O)N3CCc4ccccc4C3C2)cc1` (stereo not drawn) [Compound 34c, 4-Oxo-N-(4-sulfamoylphenethyl)-1,3,4,6,7,11b-hexahydro-2H-pyrazino[2,1-a]isoquinoline-2-carboxamide], the Ki was determined as 4180 ± 442 nM on hCA IV; 5.6 ± 0.5 nM on SmCA; 362 ± 27.3 nM on LdCA; 5.8 ± 0.3 nM at hCA II; 20.5 ± 2 nM at hCA I; 102 ± 5.9 nM on hCA IX. In addition, in [1], the “activity against NTS” value is “over 30%”.

As for `NS(=O)(=O)c1ccc(NC(=O)N2CC(=O)N3CCc4ccccc4C3C2)cc1` (stereo not drawn) [Compound 34a, 4-Oxo-N-(4-sulfamoylphenyl)-1,3,4,6,7,11b-hexahydro-2H-pyrazino[2,1-a]isoquinoline-2-carboxamide], in the experiment with S. mansoni adult worms, the “activity against adult S. mansoni worms” value stood at 30.6%. Besides, the Ki at hCA IV turned out to be 4410 ± 371 nM; at SmCA it was 59.6 ± 4.3 nM; at LdCA, 253 ± 19.4 nM; at hCA II it was 8.4 ± 0.8 nM; at hCA I it was 70.4 ± 5.7 nM; at hCA IX, 24.7 ± 1.44 nM. Also, the “activity against NTS” value in experiment [1] is reported as “over 30%”.

With “3–(3-(4–(4-Oxo-1,3,4,6,7,11b-hexahydro-2H-pyrazino[2,1-a]isoquinoline-2-carbonyl) phenyl)ureido)benzenesulfonamide [Compound 31d]”, the Ki on TcCA was determined as 393 ± 24.7 nM; at hCA IV, 320 ± 32.7 nM; at SmCA, 764 ± 68.3 nM; on LdCA it was 82.8 ± 5.5 nM; at hCA IX it was 138 ± 7.8 nM.

Take “4–(3-(3–(4-Oxo-1,3,4,6,7,11b-hexahydro-2H-pyrazino[2,1-a]isoquinoline-2-carbonyl) phenyl)ureido)benzenesulfonamide [Compound 31a]”: the inhibitory constant (Ki) amounted to 1650 ± 129 nM at TcCA; 180 ± 19.5 nM on hCA IV; 8.8 ± 0.8 nM on SmCA; 248 ± 15.9 nM on LdCA; 280 ± 15.4 nM at hCA IX.

Consider `NS(=O)(=O)c1ccc(CCC(=O)N2CC(=O)N3CCc4ccccc4C3C2)cc1` (stereo not drawn) [Compound 4b, 4–(3-Oxo-3–(4-oxo-1,3,4,6,7,11b-hexahydro-2H-pyrazino[2,1-a]isoquinolin-2-yl)propyl) benzenesulfonamide], for which the “activity against adult S. mansoni worms” value with S. mansoni adult worms came to 20.9%. In addition, the Ki on hCA IV was determined as 785 ± 58.3 nM; at SmCA it was 93.6 ± 7 nM; at LdCA it was 417 ± 33.9 nM; at hCA II it was 17.5 ± 1 nM; on hCA I it was 67.7 ± 5.1 nM; at hCA IX, 139 ± 8 nM.

For `NS(=O)(=O)c1ccc(NC(=O)NCc2ccc(C(=O)N3CC(=O)N4CCc5ccccc5C4C3)cc2)cc1` (stereo not drawn) [Compound 28a, 4–(3-(4–(4-Oxo-1,3,4,6,7,11b-hexahydro-2H-pyrazino[2,1-a]isoquinoline-2-carbonyl)benzyl)ureido)benzenesulfonamide], the inhibition constant (Ki) is 548 ± 29.6 nM at hCA IV; 614 ± 50.6 nM on SmCA; 340 ± 33.9 nM at LdCA; 8.2 ± 0.7 nM on hCA II; 74.4 ± 3.9 nM on hCA I; 31.8 ± 1.8 nM at hCA IX. Besides, in experiment [1], the “activity against NTS” value is listed as “over 30%”.
